Results as given in US20240390408A1, “METHOD OF TREATING HEPATITIS C VIRUS IN PATIENTS” (Altesa BioSciences, Inc., priority 2023, published 2024).
Read-outs that look alike come from different tables or passages of the source.

Tests used:
[1] = Tissue concentrations of Formula I and its metabolites in Göttingen pigs after a single oral or intravenous dose (LC-MS/MS); type: in vivo; conditions: for concentration at 12 h / concentration at 2 h / concentration at 3 h: both sexes, Göttingen, pig (minipig)
Description: Tissue samples were collected at 3, 12, and 24 hours post-dose (hpd) for the oral dose and 2 and 12 hpd for the intravenous dose, snap-frozen in liquid nitrogen, and stored at −60 to −90° C. until shipment on dry ice for analysis by LC-MS/MS.
Animals were weighed the day prior to dosing to determine the dosing volume.
The compound of Formula I was dissolved in a PEG 400/DI water (60%/40% v/v) vehicle for oral dosing. For IV dosing the compound of Formula I was dissolved in a PEG 400/Cremophor RH 40/Saline (40%/10%/50% v/v) vehicle and passed through a sterile filter. […] Animals were euthanized by euthanasia solution administration under sedation, if necessary (e.g., acepromazine and or/Telazol®), followed by a Testing Facility SOP approved method to ensure death (e.g., exsanguination). Tissues were collected from two animals per sex per timepoint. Tissue samples, including the brain, heart, kidney, liver, lung, spleen, pancreas, bone marrow, duodenum, jejunum, and colon, were collected in duplicate (approximately 50±20 mg each) and placed into two separate reinforced homogenization tubes per organ (one tissue sample per tube). The exact weight (in milligrams) of each sample was recorded. Tissues samples were flash frozen in liquid nitrogen and stored at −60 to −90° C. until shipment on dry ice for analysis by LC-MS/MS.
Mobile phase A consisted of 50 mM ammonium bicarbonate buffer in HPLC grade water pH 9.8 and mobile phase B consisted of pure acetonitrile. […] Mass spectrometry analysis was performed on a QTrap 7500 Mass Spectrometer (Sciex, Framingham, MA, USA) using negative mode electrospray ionization (ESI) in multiple reaction monitoring (MRM) mode. Data analysis was performed using SCIEX OS Software (Sciex, Framingham, MA, USA).
Tissue samples were collected at 3, 12, and 24 hours post-dose for the oral dose and 2 and 12 hour post-dose for the intravenous dose.

[2] = Stability in minipig plasma; type: in vitro ADME
[3] = brain, single intravenous bolus of Formula I 25 mg/kg, 2 hpd
[4] = brain, single intravenous bolus of Formula I 25 mg/kg, 12 hpd
[5] = brain, single oral dose of Formula I 125 mg/kg, 3 hpd
[6] = brain, single oral dose of Formula I 125 mg/kg, 12 hpd
[7] = brain, single oral dose of Formula I 125 mg/kg, 24 hpd
[8] = heart, single intravenous bolus of Formula I 25 mg/kg, 2 hpd
[9] = heart, single intravenous bolus of Formula I 25 mg/kg, 12 hpd
[10] = heart, single oral dose of Formula I 125 mg/kg, 12 hpd
[11] = heart, single oral dose of Formula I 125 mg/kg, 24 hpd
[12] = kidney, single intravenous bolus of Formula I 25 mg/kg, 12 hpd
[13] = kidney, single oral dose of Formula I 125 mg/kg, 3 hpd
[14] = kidney, single oral dose of Formula I 125 mg/kg, 12 hpd
[15] = kidney, single oral dose of Formula I 125 mg/kg, 24 hpd
[16] = liver, single intravenous bolus of Formula I 25 mg/kg, 2 hpd
[17] = liver, single intravenous bolus of Formula I 25 mg/kg, 12 hpd
[18] = liver, single oral dose of Formula I 125 mg/kg, 3 hpd
[19] = liver, single oral dose of Formula I 125 mg/kg, 12 hpd
[20] = liver, single oral dose of Formula I 125 mg/kg, 24 hpd
[21] = lung, single intravenous bolus of Formula I 25 mg/kg, 12 hpd
[22] = lung, single oral dose of Formula I 125 mg/kg, 12 hpd
[23] = lung, single oral dose of Formula I 125 mg/kg, 24 hpd
[24] = spleen, single intravenous bolus of Formula I 25 mg/kg, 12 hpd
[25] = spleen, single oral dose of Formula I 125 mg/kg, 12 hpd
[26] = spleen, single oral dose of Formula I 125 mg/kg, 24 hpd

## CC1(O)[C@@H](O)[C@@H](COP(=O)(O)OP(=O)(O)OP(=O)(O)O)O[C@H]1n1ccc(=O)[nH]c1=S (stereo partly drawn) [Formula V]
[1]; 125 mg/kg, liver, 12 hpd after oral dosing with Formula I, assumed tissue density of 1 g/mL, read-out: Concentration present in the liver
  concentration at 12 h: ~1000 nM
[1]; lung, 25 mg/kg, lungs, 12 hrs post-dose after IV dosing with Formula I, read-out: Concentration maintained in lungs
  concentration at 12 h: ~1000 nM
[1]; kidney, single intravenous bolus of Formula I 25 mg/kg, 2 hpd, read-out: Tissue concentration, kidney
  concentration at 2 h: 4410 ± 2040 ng/g
[1]; kidney, single oral dose of Formula I 125 mg/kg, 3 hpd, read-out: Tissue concentration, kidney
  concentration at 3 h: 613 ± 280 ng/g
[1]; liver, single intravenous bolus of Formula I 25 mg/kg, 2 hpd, read-out: Tissue concentration, liver
  concentration at 2 h: 2610 ± 892 ng/g
[1]; liver, single intravenous bolus of Formula I 25 mg/kg, 12 hpd, read-out: Tissue concentration, liver
  concentration at 12 h: 62.8 ± 126 ng/g
[1]; liver, single oral dose of Formula I 125 mg/kg, 3 hpd, read-out: Tissue concentration in Göttingen pig liver (Table 7)
  concentration at 3 h: 12900 ± 12300 nM
[1]; liver, single oral dose of Formula I 125 mg/kg, 3 hpd, read-out: Tissue concentration, liver
  concentration at 3 h: 6670 ± 6310 ng/g
[1]; liver, single oral dose of Formula I 125 mg/kg, 12 hpd, read-out: Tissue concentration in Göttingen pig liver (Table 7)
  concentration at 12 h: 880 ± 1050 nM
[1]; liver, single oral dose of Formula I 125 mg/kg, 12 hpd, read-out: Tissue concentration, liver
  concentration at 12 h: 452 ± 541 ng/g
[1]; lung, single intravenous bolus of Formula I 25 mg/kg, 2 hpd, read-out: Tissue concentration, lung
  concentration at 2 h: 3620 ± 2770 ng/g
[1]; lung, single intravenous bolus of Formula I 25 mg/kg, 12 hpd, read-out: Tissue concentration, lung
  concentration at 12 h: 455 ± 263 ng/g
[1]; lung, single oral dose of Formula I 125 mg/kg, 3 hpd, read-out: Tissue concentration, lung
  concentration at 3 h: 170 ± 29.5 ng/g
[1]; spleen, single intravenous bolus of Formula I 25 mg/kg, 2 hpd, read-out: Tissue concentration, spleen
  concentration at 2 h: 318 ± 181 ng/g
[1]; spleen, single intravenous bolus of Formula I 25 mg/kg, 12 hpd, read-out: Tissue concentration, spleen
  concentration at 12 h: 47.5 ± 95 ng/g
[1]; [3]
  Tissue concentration, brain: BQL
[1]; [4]
  Tissue concentration, brain: BQL
[1]; [5]
  Tissue concentration, brain: not detected and BQL
[1]; [6]
  Tissue concentration, brain: BQL
[1]; [7]
  Tissue concentration, brain: BQL
[1]; [8]
  Tissue concentration, heart: 405 ± 149 ng/g
[1]; [9]
  Tissue concentration, heart: 140 ± 32.0 ng/g
[1]; heart, single oral dose of Formula I 125 mg/kg, 3 hpd
  Tissue concentration, heart: 64.3 ± 75.4 ng/g
[1]; [10]
  Tissue concentration, heart: BQL
[1]; [11]
  Tissue concentration, heart: BQL
[1]; kidney, single intravenous bolus of Formula I 25 mg/kg, 2 hpd
  Tissue concentration, kidney: 4410 ± 2040 ng/g
[1]; [12]
  Tissue concentration, kidney: not detectable and BQL
[1]; [13]
  Tissue concentration, kidney: 613 ± 280 ng/g
[1]; [14]
  Tissue concentration, kidney: BQL
[1]; [15]
  Tissue concentration, kidney: BQL
[1]; [16]
  Tissue concentration, liver: 2610 ± 892 ng/g
[1]; [17]
  Tissue concentration, liver: 62.8 ± 126 ng/g
[1]; [18]
  Tissue concentration, liver: 6670 ± 6310 ng/g
[1]; [19]
  Tissue concentration, liver: 452 ± 541 ng/g
[1]; [20]
  Tissue concentration in Göttingen pig liver (Table 7): BQL
  Tissue concentration, liver: BQL
[1]; lung, single intravenous bolus of Formula I 25 mg/kg, 2 hpd
  Tissue concentration, lung: 3620 ± 2770 ng/g
[1]; [21]
  Tissue concentration, lung: 455 ± 263 ng/g
[1]; lung, single oral dose of Formula I 125 mg/kg, 3 hpd
  Tissue concentration, lung: 170 ± 29.5 ng/g
[1]; [22]
  Tissue concentration, lung: BQL
[1]; [23]
  Tissue concentration, lung: BQL
[1]; spleen, single intravenous bolus of Formula I 25 mg/kg, 2 hpd
  Tissue concentration, spleen: 318 ± 181 ng/g
[1]; [24]
  Tissue concentration, spleen: 47.5 ± 95.0 ng/g
[1]; spleen, single oral dose of Formula I 125 mg/kg, 3 hpd
  Tissue concentration, spleen: not detected and BQL
[1]; [25]
  Tissue concentration, spleen: BQL
[1]; [26]
  Tissue concentration, spleen: BQL

## CC(C)OC(=O)[C@H](C)N[P@](=O)(OC[C@H]1O[C@@H](n2ccc(=O)[nH]c2=S)C(C)(O)C1O)Oc1ccccc1 (stereo partly drawn) [Formula I]
[1]; all organs, 2-3 hours after IV or PO dosing
  Quantity detectable in organs: ~0.1 µM
[1]; in vivo, 25 mg/kg, kidney, single intravenous bolus of Formula I 25 mg/kg, 2 hpd, read-out: Tissue concentration, kidney
  concentration at 2 h: 85 ± 93.1 ng/g
[1]; in vivo, 25 mg/kg, liver, single intravenous bolus of Formula I 25 mg/kg, 2 hpd, read-out: Tissue concentration, liver
  concentration at 2 h: 7.03 ± 8.24 ng/g
[1]; in vivo, 25 mg/kg, lung, single intravenous bolus of Formula I 25 mg/kg, 2 hpd, read-out: Tissue concentration, lung
  concentration at 2 h: 51.8 ± 29.1 ng/g
[1]; in vivo, 25 mg/kg, spleen, single intravenous bolus of Formula I 25 mg/kg, 2 hpd, read-out: Tissue concentration, spleen
  concentration at 2 h: 63.9 ± 29.8 ng/g
[1]; in vivo, 125 mg/kg, brain, single oral dose of Formula I 125 mg/kg, 3 hpd, read-out: Tissue concentration, brain
  concentration at 3 h: 31.5 ± 63 ng/g
[1]; in vivo, 125 mg/kg, heart, single oral dose of Formula I 125 mg/kg, 3 hpd, read-out: Tissue concentration, heart
  concentration at 3 h: 117 ± 105 ng/g
[1]; in vivo, 125 mg/kg, liver, single oral dose of Formula I 125 mg/kg, 3 hpd, read-out: Tissue concentration in Göttingen pig liver (Table 7)
  concentration at 3 h: 496 ± 663 nM
[1]; in vivo, 125 mg/kg, liver, single oral dose of Formula I 125 mg/kg, 3 hpd, read-out: Tissue concentration, liver
  concentration at 3 h: 270 ± 361 ng/g
[1]; in vivo, 125 mg/kg, lung, single oral dose of Formula I 125 mg/kg, 3 hpd, read-out: Tissue concentration, lung
  concentration at 3 h: 38.6 ± 46.5 ng/g
[1]; in vivo, 125 mg/kg, spleen, single oral dose of Formula I 125 mg/kg, 3 hpd, read-out: Tissue concentration, spleen
  concentration at 3 h: 88.4 ± 60.3 ng/g
[1]; [3]
  Tissue concentration, brain: BQL
[1]; [4]
  Tissue concentration, brain: BQL
[1]; [5]
  Tissue concentration, brain: 31.5 ± 63.0 ng/g
[1]; [6]
  Tissue concentration, brain: BQL
[1]; [7]
  Tissue concentration, brain: BQL
[1]; [8]
  Tissue concentration, heart: 112 ± 69.0 ng/g
[1]; [9]
  Tissue concentration, heart: 2.95 ± 5.90 ng/g
[1]; [10]
  Tissue concentration, heart: BQL
[1]; [11]
  Tissue concentration, heart: BQL
[1]; [12]
  Tissue concentration, kidney: BQL
[1]; [13]
  Tissue concentration, kidney: BQL
[1]; [14]
  Tissue concentration, kidney: BQL
[1]; [15]
  Tissue concentration, kidney: BQL
[1]; [16]
  Tissue concentration, liver: 7.03 ± 8.24 ng/g
[1]; [17]
  Tissue concentration, liver: BQL
[1]; [18]
  Tissue concentration, liver: 270 ± 361 ng/g
[1]; [19]
  Tissue concentration in Göttingen pig liver (Table 7): BQL
  Tissue concentration, liver: BQL
[1]; [20]
  Tissue concentration in Göttingen pig liver (Table 7): BQL
  Tissue concentration, liver: BQL
[1]; [21]
  Tissue concentration, lung: BQL
[1]; [22]
  Tissue concentration, lung: BQL
[1]; [23]
  Tissue concentration, lung: BQL
[1]; [24]
  Tissue concentration, spleen: BQL
[1]; [25]
  Tissue concentration, spleen: BQL
[1]; [26]
  Tissue concentration, spleen: BQL
[2]
  Stability in minipig plasma: good stability
